Results as given in the supplement of paper PMC10307832.

Columns and labels:
Assay in all cases: relative viability (nuclei count vs DMSO), 5 days (fraction); higher = more cells survive
Venetoclax + Crizotinib = compound: CC1(C)CCC(CN2CCN(c3ccc(C(=O)NS(=O)(=O)c4ccc(NCC5CCOCC5)c([N+](=O)[O-])c4)c(Oc4cnc5[nH]ccc5c4)c3)CC2)=C(c2ccc(Cl)cc2)C1 [Venetoclax] + C[C@@H](Oc1cc(-c2cnn(C3CCNCC3)c2)cnc1N)c1c(Cl)ccc(F)c1Cl [Crizotinib] (partner 1 µM)
In short: (§1)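 The day after seeding in 1536-well plates, lung cancer cell lines were treated by pin tool with a single drug, or with a fixed anchor-drug dose together with five library-drug doses (not always all listed) in √10 steps. After 5 days, a combined fix-and-stain solution (final 0.05% Triton X-100, 1% formaldehyde, 1 ug/ml Hoechst) was added. Nuclei counted on 4× images gave relative viability as treated counts over vehicle counts, reported as the median of duplicate plates.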

Venetoclax + Decitabine = compound: CC1(C)CCC(CN2CCN(c3ccc(C(=O)NS(=O)(=O)c4ccc(NCC5CCOCC5)c([N+](=O)[O-])c4)c(Oc4cnc5[nH]ccc5c4)c3)CC2)=C(c2ccc(Cl)cc2)C1 [Venetoclax] + Nc1ncn([C@H]2C[C@H](O)[C@@H](CO)O2)c(=O)n1 [Decitabine] (partner 2 µM)
In short: as §1

Selumetinib + Tozasertib = compound: Cn1cnc2c(F)c(Nc3ccc(Br)cc3Cl)c(C(=O)NOCCO)cc21 [Selumetinib] + Cc1cc(Nc2cc(N3CCN(C)CC3)nc(Sc3ccc(NC(=O)C4CC4)cc3)n2)n[nH]1 [Tozasertib] (partner 0.1 µM)
In short: as §1

Selumetinib + Vorinostat = compound: Cn1cnc2c(F)c(Nc3ccc(Br)cc3Cl)c(C(=O)NOCCO)cc21 [Selumetinib] + O=C(CCCCCCC(=O)Nc1ccccc1)NO [Vorinostat] (partner 1 µM)
In short: as §1

Row | Cell Line | relative viability (Venetoclax + Crizotinib; first compound 0.01 µM) | relative viability (Venetoclax + Crizotinib; first compound 0.03162 µM) | relative viability (Venetoclax + Crizotinib; first compound 0.1 µM) | relative viability (Venetoclax + Crizotinib; first compound 0.3162 µM) | relative viability (Venetoclax + Crizotinib; first compound 1 µM) | relative viability (Venetoclax + Decitabine; first compound 0.01 µM) | relative viability (Venetoclax + Decitabine; first compound 0.03162 µM) | relative viability (Venetoclax + Decitabine; first compound 0.1 µM) | relative viability (Venetoclax + Decitabine; first compound 0.3162 µM) | relative viability (Venetoclax + Decitabine; first compound 1 µM) | relative viability (Selumetinib + Tozasertib; first compound 0.02 µM) | relative viability (Selumetinib + Tozasertib; first compound 0.06325 µM) | relative viability (Selumetinib + Tozasertib; first compound 0.2 µM) | relative viability (Selumetinib + Tozasertib; first compound 0.6325 µM) | relative viability (Selumetinib + Vorinostat; first compound 0.02 µM) | relative viability (Selumetinib + Vorinostat; first compound 0.06325 µM) | relative viability (Selumetinib + Vorinostat; first compound 0.2 µM) | relative viability (Selumetinib + Vorinostat; first compound 0.6325 µM)
1 | LC-2-ad | 0.46 | 0.465 | 0.439 | 0.466 | 0.51 | 0.858 | 0.778 | 0.785 | 0.78 | 0.765 | 0.517 | 0.391 | 0.393 | 0.386 | 0.653 | 0.723 | 0.665 | 0.67
2 | NCI-H661 | 0.987 | 1.09 | 1.12 | – | 1.05 | 0.561 | 0.528 | 0.547 | 0.532 | 0.529 | 0.381 | 0.366 | 0.386 | 0.374 | 0.882 | 0.772 | 0.75 | 0.799
3 | SK-MES-1 | 1.01 | 1.08 | 1.05 | 1.01 | 0.843 | 0.305 | 0.428 | 0.367 | 0.404 | 0.391 | 1.08 | 0.894 | 0.949 | 0.676 | 0.938 | 0.85 | 0.853 | 0.65
4 | NCI-H2170 | 1.07 | 1.23 | 1.12 | 1.15 | 1.13 | 0.442 | 0.46 | 0.431 | 0.451 | 0.473 | 0.746 | 0.848 | 0.661 | 0.657 | 0.905 | 0.74 | 0.705 | 0.786
5 | NCI-H2126 | 0.986 | 1.02 | 1.04 | 0.971 | 0.969 | 0.579 | 0.616 | 0.601 | 0.56 | 0.548 | 0.784 | 0.741 | 0.728 | 0.638 | 0.727 | 0.664 | 0.595 | 0.583
6 | EPLC-272H | – | 0.682 | 0.872 | 1.11 | 0.897 | 0.391 | 0.378 | 0.328 | 0.371 | 0.445 | 0.185 | 0.181 | 0.34 | 0.283 | 0.312 | 0.343 | 0.3 | 0.256
7 | PC-14 | 0.844 | 0.972 | 1.06 | 0.864 | 0.801 | 0.298 | 0.164 | 0.224 | 0.207 | 0.213 | 0.529 | 0.486 | 0.532 | 0.434 | 0.835 | 0.667 | 0.688 | 0.504
8 | NCI-H520 | 0.769 | 0.698 | 0.658 | 0.835 | 0.698 | 0.526 | 0.506 | – | 0.557 | 0.458 | 0.477 | 0.435 | 0.461 | 0.52 | 0.774 | 0.73 | 0.785 | 0.71
9 | LXF-289 | 0.832 | 0.816 | 0.776 | 0.798 | 0.702 | 0.35 | 0.37 | 0.385 | 0.387 | 0.4 | 0.219 | 0.229 | 0.191 | 0.159 | 0.734 | 0.668 | 0.595 | 0.661
10 | NCI-H441 | 0.845 | 0.976 | 0.745 | 0.679 | 0.71 | 0.235 | 0.219 | 0.208 | 0.23 | 0.24 | 0.587 | 0.656 | 0.636 | 0.583 | 0.843 | 0.868 | 0.783 | 0.778
11 | NCI-H596 | 1.14 | 0.893 | 1.02 | 1.02 | 1.02 | 1.16 | 0.998 | 0.923 | 0.914 | 0.935 | 0.883 | 0.899 | 0.668 | 0.648 | 0.368 | 0.557 | 0.578 | 0.606
12 | NCI-H727 | 0.838 | 0.922 | 0.912 | 0.976 | 0.673 | 0.918 | 1.07 | 1.04 | 0.704 | 0.891 | 0.403 | 0.357 | 0.338 | 0.294 | 1.01 | 0.741 | 0.709 | 0.553
13 | NCI-H838 | 0.815 | 0.854 | 0.8 | 0.88 | 0.795 | 0.53 | 0.485 | 0.445 | 0.449 | 0.477 | 0.261 | 0.226 | 0.229 | 0.245 | 0.644 | 0.54 | 0.654 | 0.636
14 | NCI-H1355 | 1.07 | 1.14 | 1.07 | 0.984 | 1.04 | 0.372 | 0.351 | 0.402 | 0.37 | 0.362 | 0.536 | 0.567 | 0.445 | 0.414 | 0.561 | 0.529 | 0.488 | 0.382
15 | HARA | 0.946 | 1.07 | 0.603 | 1.04 | 1.08 | 0.62 | 0.633 | – | 0.72 | 0.606 | 0.108 | 0.115 | 0.111 | 0.102 | 0.428 | – | 0.365 | 0.249
16 | 201T | 1.01 | 0.995 | 0.989 | 0.948 | 1.05 | 0.774 | 0.834 | 0.792 | 0.82 | 0.825 | 0.908 | 0.928 | 0.88 | 0.874 | 0.929 | 0.876 | 0.877 | 0.814
